What was measured:
Experiment in all cases: relative viability (nuclei count vs DMSO), 5 days (fraction); higher = more cells survive
5-Fluorouracil + AZD7762 = compound: O=c1[nH]cc(F)c(=O)[nH]1 [5-Fluorouracil] + NC(=O)Nc1cc(-c2cccc(F)c2)sc1C(=O)N[C@H]1CCCNC1 [AZD7762] (partner 0.2 µM)
Outline: (§1)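 Relative viability is defined as nuclei in treated wells over nuclei in vehicle wells. Duplicate plates were run and medians reported. Lung cancer cell lines in 1536-well plates were dosed by pin tool one day after seeding, with one drug or with a fixed anchor-drug dose plus five library-drug doses (not always all listed) in √10 steps, and nuclei were counted after 5 days.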

[1] = compound: CN[C@@H]1C[C@H]2O[C@@](C)([C@@H]1OC)n1c3ccccc3c3c4c(c5c6ccccc6n2c5c31)C(=O)NC4 [Staurosporine] + CCNC(=O)c1noc(-c2cc(C(C)C)c(O)cc2O)c1-c1ccc(CN2CCOCC2)cc1 [Luminespib] (partner 0.01 µM)
Outline: as §1

Sulindac + Tozasertib = compound: CC1=C(CC(=O)O)c2cc(F)ccc2/C1=C\c1ccc([S+](C)[O-])cc1 [Sulindac] + Cc1cc(Nc2cc(N3CCN(C)CC3)nc(Sc3ccc(NC(=O)C4CC4)cc3)n2)n[nH]1 [Tozasertib] (partner 0.1 µM)
Outline: as §1

[2] = compound: CN[C@@H]1C[C@H]2O[C@@](C)([C@@H]1OC)n1c3ccccc3c3c4c(c5c6ccccc6n2c5c31)C(=O)NC4 [Staurosporine] + Cc1cc(Nc2cc(N3CCN(C)CC3)nc(Sc3ccc(NC(=O)C4CC4)cc3)n2)n[nH]1 [Tozasertib] (partner 0.1 µM)
Outline: as §1

Cell Line | relative viability (5-Fluorouracil + AZD7762; first compound 0.02 µM) | relative viability (5-Fluorouracil + AZD7762; first compound 0.2 µM) | relative viability (5-Fluorouracil + AZD7762; first compound 0.6325 µM) | relative viability (5-Fluorouracil + AZD7762; first compound 2 µM) | relative viability ([1]; first compound 0.005 µM) | relative viability ([1]; first compound 0.01581 µM) | relative viability ([1]; first compound 0.05 µM) | relative viability ([1]; first compound 0.1581 µM) | relative viability ([1]; first compound 0.5 µM) | relative viability (Sulindac + Tozasertib; first compound 0.08 µM) | relative viability (Sulindac + Tozasertib; first compound 0.253 µM) | relative viability (Sulindac + Tozasertib; first compound 0.8 µM) | relative viability (Sulindac + Tozasertib; first compound 2.53 µM) | relative viability (Sulindac + Tozasertib; first compound 8 µM) | relative viability ([2]; first compound 0.005 µM) | relative viability ([2]; first compound 0.01581 µM) | relative viability ([2]; first compound 0.05 µM) | relative viability ([2]; first compound 0.1581 µM) | relative viability ([2]; first compound 0.5 µM)
NCI-H838 | 0.915 | 0.684 | 0.654 | 0.642 | 0.247 | 0.135 | 0.138 | 0.107 | 0.113 | 0.283 | 0.269 | 0.253 | 0.248 | 0.218 | 0.218 | 0.156 | 0.179 | 0.164 | 0.143
NCI-H1666 | 0.708 | 0.389 | 0.462 | 0.426 | 0.758 | 0.582 | 0.604 | 0.38 | 0.279 | 0.624 | 0.627 | 0.593 | 0.562 | 0.648 | 0.544 | 0.44 | 0.402 | 0.355 | 0.257
HCC-44 | 1.01 | 0.925 | 0.733 | 0.466 | 0.416 | 0.169 | 0.161 | 0.187 | 0.137 | 1.08 | 1.04 | – | 0.938 | 0.981 | 0.426 | 0.136 | 0.168 | 0.135 | 0.112
A-427 | 0.676 | 0.805 | 0.308 | 0.253 | 0.712 | 0.463 | 0.231 | 0.159 | 0.149 | 0.176 | 0.198 | 0.193 | 0.177 | 0.206 | 0.171 | 0.113 | 0.1 | 0.104 | 0.0934
NCI-H460 | 0.678 | 0.332 | 0.0757 | 0.0672 | 0.0316 | 0.0208 | 0.0244 | 0.0122 | 0.0179 | 0.639 | 0.439 | 0.667 | 0.46 | 0.314 | 0.698 | 0.113 | 0.304 | 0.0517 | 0.0214
NCI-H522 | 0.948 | 0.98 | 0.755 | 0.916 | 1.2 | 1.14 | 0.719 | 0.758 | 0.751 | 0.676 | 0.643 | 0.541 | 0.502 | 0.575 | 0.541 | – | 0.492 | 0.433 | 0.486
NCI-H441 | 1.18 | 0.857 | 0.402 | 0.317 | 0.36 | 0.216 | 0.195 | 0.231 | 0.148 | 0.763 | 0.773 | 0.593 | 0.725 | 0.667 | 0.392 | 0.379 | 0.231 | 0.195 | 0.208
ABC-1 | 0.754 | 0.933 | 0.722 | 0.634 | 0.261 | 0.274 | 0.147 | 0.156 | 0.0847 | 0.12 | 0.147 | 0.157 | 0.162 | 0.183 | 0.134 | 0.104 | 0.125 | 0.111 | 0.111
SW 900 | 0.739 | 0.695 | 0.543 | 0.398 | 0.164 | 0.149 | 0.134 | 0.14 | 0.161 | – | 0.516 | – | 0.462 | 0.585 | 0.541 | 0.239 | 0.246 | 0.206 | 0.162
LK-2 | 0.482 | 0.486 | 0.153 | 0.188 | 0.202 | – | 0.187 | 0.153 | 0.172 | 0.186 | 0.178 | – | – | 0.189 | 0.164 | – | 0.156 | 0.149 | 0.151
NCI-H2085 | 0.938 | 0.935 | 0.837 | 0.644 | 0.39 | 0.315 | 0.2 | 0.227 | 0.171 | 0.789 | 0.842 | 0.829 | 0.797 | 0.807 | 0.721 | 0.32 | 0.355 | 0.24 | –
NCI-H650 | 0.883 | 0.464 | 0.328 | 0.422 | 0.474 | 0.248 | 0.235 | 0.11 | 0.092 | 0.76 | 0.744 | 0.71 | 0.607 | 0.757 | 0.451 | 0.238 | 0.278 | 0.193 | 0.181
NCI-H1793 | 0.344 | 0.488 | 0.409 | 0.332 | 0.252 | – | 0.188 | 0.131 | 0.13 | 0.283 | 0.283 | 0.349 | 0.33 | 0.336 | 0.335 | – | 0.299 | 0.182 | 0.186
NCI-H3122 | 0.959 | 0.856 | 0.197 | 0.143 | 0.0697 | – | 0.0639 | 0.0502 | 0.0521 | 0.4 | 0.469 | 0.377 | 0.352 | 0.466 | 0.441 | – | 0.246 | 0.134 | 0.0837
LCLC-103H | 0.734 | 0.758 | 0.546 | 0.381 | 0.8 | 0.369 | 0.157 | 0.18 | 0.177 | 0.439 | 0.512 | 0.508 | 0.47 | 0.48 | 0.534 | 0.207 | 0.174 | 0.128 | 0.146
NCI-H596 | 1.23 | 0.981 | 0.371 | 0.356 | 1.19 | 0.719 | 0.509 | 0.237 | 0.3 | 0.877 | 0.939 | 0.913 | 0.946 | 1 | 1.02 | 0.735 | 0.572 | 0.36 | 0.288
NCI-H358 | 0.595 | 0.505 | 0.477 | 0.293 | 0.563 | 0.198 | 0.359 | 0.167 | 0.0923 | 0.112 | 0.0982 | 0.104 | 0.0899 | 0.102 | 0.0876 | 0.0765 | 0.0699 | 0.0598 | 0.0619

From the supplement of paper PMC10307832
